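Cells were grown in 96-well plates and exposed to each compound for 48 hours at five concentrations; endpoints were interpolated linearly between bracketing concentrations, or set to the highest concentration if not reached. TGI: concentration producing complete growth inhibition.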
Assays:
Assay in all cases: DTP human tumour cell line panel, 48 h
[1] = tested on: HCT-15 colon
[2] = tested on: MDA-N
[3] = tested on: A498 renal
[4] = tested on: OVCAR-8 ovarian
[5] = tested on: OVCAR-3 ovarian
[6] = tested on: OVCAR-5 ovarian
[7] = tested on: ACHN renal
[8] = tested on: IGROV1 ovarian
[9] = tested on: SNB-19 CNS
[10] = tested on: MDA-MB-231 breast
[11] = tested on: CCRF-CEM leukemia
[12] = tested on: 786-0 renal
[13] = tested on: NCI-H460 lung
[14] = tested on: MCF7 breast
[15] = tested on: SF-295 CNS
[16] = tested on: U251 CNS
[17] = tested on: HOP-92 NSCLC
[18] = tested on: OVCAR-4 ovarian
[19] = tested on: SK-MEL-28 melanoma
[20] = tested on: NCI-H23 lung
[21] = tested on: MDA-MB-435
[22] = tested on: SF-268 CNS
[23] = tested on: HOP-62 NSCLC
[24] = tested on: UACC-257 melanoma
[25] = tested on: BT-549 breast
[26] = tested on: MALME-3M melanoma
[27] = tested on: HCC-2998 colon
[28] = tested on: RXF 393 renal
[29] = tested on: T-47D breast
[30] = tested on: MOLT-4 leukemia
[31] = tested on: EKVX NSCLC
[32] = tested on: SN12C renal
[33] = tested on: SK-OV-3 ovarian
[34] = tested on: A549 NSCLC
[35] = tested on: COLO 205 colon
[36] = tested on: HS 578T breast
[37] = tested on: SR leukemia
[38] = tested on: NCI/ADR-RES ovarian
[39] = tested on: LOX IMVI melanoma
[40] = tested on: HCT-116 colon
[41] = tested on: SW-620 colon
[42] = tested on: KM12 colon
[43] = tested on: PC-3 prostate
[44] = tested on: RPMI-8226 leukemia
[45] = tested on: SF-539 CNS
[46] = tested on: SK-MEL-5 melanoma
[47] = tested on: CAKI-1 renal
[48] = tested on: NCI-H226 lung
[49] = tested on: NCI-H522 lung
[50] = tested on: HL-60(TB) leukemia
[51] = tested on: TK-10 renal
[52] = tested on: SK-MEL-2 melanoma
[53] = tested on: M14 melanoma
[54] = tested on: UACC-62 melanoma
[55] = tested on: K-562 leukemia
[56] = tested on: HT29 colon
[57] = tested on: DU-145 prostate
[58] = tested on: UO-31 renal
[59] = tested on: SNB-75 CNS
[60] = tested on: LXFL 529 NSCLC
[61] = tested on: KM20L2 colon
[62] = tested on: DLD-1 colon
[63] = tested on: XF 498 CNS
[64] = tested on: DMS 273 small cell lung
[65] = tested on: DMS 114 small cell lung
[66] = tested on: SNB-78 CNS
[67] = tested on: M19-MEL melanoma
[68] = tested on: HOP-18 NSCLC

FC(F)(F)C1(c2ccccc2)SCc2nc3ccccc3n21 (stereo not given)
TGI [1]: > 100 µM | TGI [2]: > 100 µM | TGI [3]: > 100 µM | TGI [4]: > 100 µM | TGI [5]: > 100 µM | TGI [6]: > 100 µM | TGI [7]: > 100 µM | TGI [8]: > 100 µM | TGI [9]: > 100 µM | TGI [10]: > 100 µM | TGI [11]: > 100 µM | TGI [12]: > 100 µM | TGI [13]: > 100 µM | TGI [14]: > 100 µM | TGI [15]: > 100 µM | TGI [16]: > 100 µM | TGI [17]: > 100 µM | TGI [18]: > 100 µM | TGI [19]: > 100 µM | TGI [20]: > 100 µM | TGI [21]: > 100 µM | TGI [22]: > 100 µM | TGI [23]: > 100 µM | TGI [24]: > 100 µM | TGI [25]: > 100 µM | TGI [26]: > 100 µM | TGI [27]: > 100 µM | TGI [28]: > 100 µM | TGI [29]: > 100 µM | TGI [30]: > 100 µM | TGI [31]: > 100 µM | TGI [32]: > 100 µM | TGI [33]: > 100 µM | TGI [34]: > 100 µM | TGI [35]: > 100 µM | TGI [36]: > 100 µM | TGI [37]: > 100 µM | TGI [38]: > 100 µM | TGI [39]: > 100 µM | TGI [40]: > 100 µM | TGI [41]: > 100 µM | TGI [42]: > 100 µM | TGI [43]: > 100 µM | TGI [44]: > 100 µM | TGI [45]: > 100 µM | TGI [46]: > 100 µM | TGI [47]: > 100 µM | TGI [48]: > 100 µM | TGI [49]: > 100 µM | TGI [50]: > 100 µM | TGI [51]: > 100 µM | TGI [52]: > 100 µM | TGI [53]: > 100 µM | TGI [54]: > 100 µM | TGI [55]: > 100 µM | TGI [56]: > 100 µM | TGI [57]: > 100 µM | TGI [58]: > 100 µM | TGI [59]: > 100 µM

OCCCCCNc1ccnc2cc(Cl)ccc12
TGI [1]: > 100 µM | TGI [3]: > 100 µM | TGI [60]: > 100 µM | TGI [61]: > 100 µM | TGI [62]: > 100 µM | TGI [4]: > 100 µM | TGI [5]: > 100 µM | TGI [6]: > 100 µM | TGI [7]: > 100 µM | TGI [63]: > 100 µM | TGI [8]: > 100 µM | TGI [64]: > 100 µM | TGI [65]: > 100 µM | TGI [9]: > 100 µM | TGI [11]: > 100 µM | TGI [12]: > 100 µM | TGI [13]: > 100 µM | TGI [15]: > 100 µM | TGI [16]: > 100 µM | TGI [66]: > 100 µM | TGI [17]: > 100 µM | TGI [18]: > 100 µM | TGI [19]: > 100 µM | TGI [20]: > 100 µM | TGI [22]: > 100 µM | TGI [23]: > 100 µM | TGI [24]: > 100 µM | TGI [26]: > 100 µM | TGI [27]: > 100 µM | TGI [28]: > 100 µM | TGI [30]: > 100 µM | TGI [31]: > 100 µM | TGI [32]: > 100 µM | TGI [33]: > 100 µM | TGI [34]: > 100 µM | TGI [35]: > 100 µM | TGI [37]: 40.8 µM | TGI [40]: > 100 µM | TGI [41]: > 100 µM | TGI [42]: > 100 µM | TGI [44]: > 100 µM | TGI [45]: > 100 µM | TGI [46]: > 100 µM | TGI [47]: > 100 µM | TGI [48]: > 100 µM | TGI [49]: > 100 µM | TGI [50]: > 100 µM | TGI [52]: > 100 µM | TGI [53]: > 100 µM | TGI [54]: > 100 µM | TGI [67]: > 100 µM | TGI [55]: 64.7 µM | TGI [56]: > 100 µM | TGI [68]: > 100 µM | TGI [58]: > 100 µM | TGI [59]: > 100 µM

— PubChem BioAssay (NCI)
